Patent US8846747B2, “Compounds and methods for altering lifespan of eukaryotic organisms” (University of Rochester, priority 2009, dated 2014)

Key:
[1] = tested on: DeaD strain BB579; experiment: yeast Death of Daughters (DeaD) lifespan assay, reversal of nicotinamide (NAM) lifespan shortening; type: cell-based, S. cerevisiae (yeast); details: for fold induction at 0.125 µM / EC50: Saccharomyces cerevisiae; for fold induction at 0.125 µM: BB579, compound 125 nM; for fold induction at 0.125 µM / average improvement, 0.5 to 100 nM: fold improvement in DeaD lifespan; for fold induction at 0.125 µM / average improvement, 250 nM to 1μM / average improvement, 0.5 to 100 nM: 0.75 mM NAM; for average improvement, 250 nM to 1μM: fold improvement in DeaD lifespan (OD600 at 60 h normalized to no drug control), compound 250 nM to 1μM; for EC50: BB579, read-out: C50 (concentration that yields half the maximal activity) by DeaD assay; for average improvement, 0.5 to 100 nM: compound 0.5 to 100 nM
Procedure: The C50 (50% maximal activity) is a measure of the efficacy of a compound as a LAC and is determined by quantifying the dose-response curve for each LAC by DeaD assay in the presence and absence of nicotinamide. The C50 is the concentration of LAC that yields half the maximal activity. Dose response curves will generally peak and then decline. The decline is most likely due to toxicity at higher LAC concentrations. The C50 is determined relative to the maximal lifespan extension (the peak value). C50 values are provided for C1-5.
The compounds listed in Table 1 of Example 3 were assessed for their anti-aging activities using the yeast Death of Daughters (DeaD) explicative lifespan assay. Specifically, the compounds were assessed for their capacity to reverse the lifespan shortening effect of exogenous nicotinamide (NAM), which is a known inhibitor of the anti-aging protein Sir2p (Anderson et al., 2003; Bitterman et al., 2002). These compounds were compared to the activities of known cluster 1 compounds, S3-5, and #3-11.
“Activity” here is defined herein as the fold improvement in DeaD lifespan in the presence of 0.75 mM NAM relative to lifespan in the absence of cluster 1 compounds, over a range of compound concentrations between 0.5 nm-1 μm. This “activity” value is a means of assessing the usefulness of a compound as a LAC. The assays were performed as follows. DeaD strain BB579 was grown overnight in a permissive (galactose-containing) medium to mid-log phase, and then diluted to an OD600 of 0.0001 in restrictive (glucose-containing) medium with 0.75 mM NAM and the compound to be tested. Cells were then incubated at 30° C. for 3 days, with shaking and OD600 measurement every 20 minutes. The OD600 reading after 60 hours in restrictive medium, normalized to the same measurement for the “no drug” control, was used as the number for comparison.
Five of the compounds with higher activity than S3-5 were selected for further study and were designated C1-1, C1-2, C1-3, C1-4, and C1-5 (see Table 2, Example 4). All data in FIGS. 1A(1)-(6) are from media containing 0.75 mM NAM. Note the different ranges of the X axes in FIGS. 1A(1)-(6)—very different C50 values for the compounds of the present invention compared the known C1 cluster compounds. […] All five had C50 values below 50 nM, while the C50 value for S3-5 was about 650 nM, and the C50 for S1-9 was about 350 nM.

[2] = tested on: strain FY839 (healthy wild-type); experiment: Toxicity of compounds by yeast growth assay; type: cell-based; details: FY839, inset in FIG. 2
Procedure: The toxicity of compounds C1-1, C1-2, C1-3, C1-4, and C1-5 in yeast was assessed by determining their effects on growth of a wild-type yeast strain. FIG. 2 is a graphical representation of the toxicity data. The yeast used was strain FY839 (healthy wild-type) growing in SCD. At 12 hours all were in log phase. […] This concentration is many-fold higher than the effective concentrations of these compounds as assessed by DeaD lifespan assays.

[3] = tested on: RAW 264.7 cells; experiment: LPS-induced TNF-α secretion from RAW 264.7 cells (ELISA); type: cell-based, murine; details: compound 1 micromolar, LPS 10 ng/ml for 6 hrs; FIG. 3
Procedure: FIG. 3. […] To obtain the data summarized in FIG. 3, RAW […] cells were incubated with Scrims (compounds of present invention) (1 uM), PI3K inhibitor positive control (LY-294002; 25 uM) or vehicle (DMSO) for 1 hr. LPS (10 ng/ml) was added to the medium. 6 hrs post LPS administration medium was collected and analyzed for TNFa levels using ELISA.
In vitro anti-inflammatory activity in RAW 264.7 cells (murine leukaemic monocyte macrophage cell line): Lipopolysaccharide (LPS)-induced secretion of cytokines from RAW cells is a recognized in vitro assay for anti-inflammatory drugs. The anti-inflammatory activities of C1-1, C1-2, C1-3, C1-4, and C1-5 in the RAW cell model. RAW cells exposed to LPS were incubated with each of the five molecules at 1 micromolar concentration. The PIK3 inhibitor LY-294002 was used at 25 micromolar as a positive control. […] LPS was administered at 10 ng/ml for 6-hrs. TNF-α levels were quantified by ELISA assay. Results are presented as % of control with standard deviations of three replicates.

CCCCCC1CC(=O)C(C(=O)CC)C(=O)C1 (centres unmarked) [compound 22945]
fold induction at 0.125 µM [1]: 1.96
average improvement, 250 nM to 1μM [1]: 2.54

CC(C)C(=O)C1C(=O)CC(c2cccs2)CC1=O (centres unmarked) [compound 22898]
average improvement, 250 nM to 1μM [1]: 1.37

CC(=O)C1C(=O)CC(C2CC3C=CC2C3)CC1=O (centres unmarked) [compound 22856]
fold induction at 0.125 µM [1]: 3.18
average improvement, 250 nM to 1μM [1]: 2.18

CCC(=O)C1C(=O)CC(c2ccc3c(c2)OCO3)CC1=O (centres unmarked) [compound 22936]
average improvement, 250 nM to 1μM [1]: 1.46

CCC(=O)C1C(=O)CC(C(C)C)CC1=O (centres unmarked) [compound 22932]
fold induction at 0.125 µM [1]: 1.76
average improvement, 250 nM to 1μM [1]: 1.80

CC(=O)C1C(=O)CC(c2cccs2)CC1=O (centres unmarked) [SRI# 22933, 1,3-cyclohexanedione, 2-acetyl 5-[thien-2-yl]-]
EC50 [1]: < 50 nM
toxic effects on growth at concentrations below 1 μM [2]: little or no toxic effects on growth
reduction of secreted TNF-α relative to vehicle treated cells [3]: exhibited anti-inflammatory activity

CC(=O)C1C(=O)CC(c2c(F)cccc2Cl)CC1=O (centres unmarked) [compound 22847]
fold induction at 0.125 µM [1]: 3.25
average improvement, 250 nM to 1μM [1]: 2.17

CCC1CC(=O)C(C(C)=O)C(=O)C1 (centres unmarked) [compound 22941]
average improvement, 250 nM to 1μM [1]: 1.62

CCC(=O)C1C(=O)CC(C2CC3C=CC2C3)CC1=O (centres unmarked) [SRI# 22965, 1,3-cyclohexanedione, 2-propanoyl-5-[bicyclo[2.2.1]hept-2-en-5-yl]-]
EC50 [1]: < 50 nM
reduction of secreted TNF-α relative to vehicle treated cells [3]: exhibited anti-inflammatory activity

CCC(=O)C1C(=O)CC(C2CC3C=CC2C3)CC1=O (centres unmarked) [compound 22965]
fold induction at 0.125 µM [1]: 3.65
average improvement, 250 nM to 1μM [1]: 2.57
average improvement, 0.5 to 100 nM [1]: 1.72

CC(=O)C1C(=O)CC(C(C)C)CC1=O (centres unmarked) [compound 22931]
fold induction at 0.125 µM [1]: 1.86
average improvement, 250 nM to 1μM [1]: 2.09

Cc1ccc(C2CC(=O)C(C(=O)C3CC3)C(=O)C2)cc1 (centres unmarked) [compound 22824]
fold induction at 0.125 µM [1]: 1.32
average improvement, 250 nM to 1μM [1]: 1.42

O=C1CC(C2CCCCC2)CC(=O)C1C(=O)c1ccccc1 (centres unmarked) [compound 22845]
fold induction at 0.125 µM [1]: 1.99
average improvement, 250 nM to 1μM [1]: 2.11

CC(=O)C1C(=O)CC(c2ccc3c(c2)OCO3)CC1=O (centres unmarked) [compound 22935]
average improvement, 250 nM to 1μM [1]: 1.51

CC(=O)C1C(=O)CC(c2ccc(F)cc2)CC1=O (centres unmarked) [compound 22850]
average improvement, 250 nM to 1μM [1]: 1.59

CCCCCC1CC(=O)C(C(C)=O)C(=O)C1 (centres unmarked) [compound 22944]
fold induction at 0.125 µM [1]: 2.72
average improvement, 250 nM to 1μM [1]: 2.28
average improvement, 0.5 to 100 nM [1]: 1.21

CCCCC1CC(=O)C(C(=O)CC)C(=O)C1 (centres unmarked) [compound 22943]
fold induction at 0.125 µM [1]: 2.79
average improvement, 250 nM to 1μM [1]: 2.33

O=C1CC(c2ccc(Cl)cc2Cl)CC(=O)C1C(=O)C1CC1 (centres unmarked) [compound 22889]
average improvement, 250 nM to 1μM [1]: 1.64

CC(=O)C1C(=O)CC(c2ccco2)CC1=O (centres unmarked) [compound 22848]
average improvement, 250 nM to 1μM [1]: 1.58

CCCC(=O)C1C(=O)C(C(C)=O)C(=O)CC1CC(C)CCC (centres unmarked) [#3-11, reference compound]
average improvement, 250 nM to 1μM [1]: 1.30
